Experimental data from patent US9856279B2 (AGIOS PHARMACEUTICALS, INC, priority 2011, dated 2018).

Molecular target: IDH1 R132H (Homo sapiens, UniProt O75874, R132H)
Assay: Assay for IDH1 R132H inhibitors (NADPH/aKG, resazurin detection)
Type: biochemical
Settings: Table 3; enzyme assay, 50 minutes at room temperature; read-out: IC50 (IDH1 R132H Inhibition)
Procedure: Assays were conducted in a volume of 76 μl assay buffer (150 mM NaCl, 10 mM MgCl2, 20 mM Tris pH 7.5, 0.03% bovine serum albumin) as follows in a standard 384-well plate: To 25 ul of substrate mix (8 uM NADPH, 2 mM aKG), 1 μl of test compound was added in DMSO. The plate was centrifuged briefly, and then 25 μl of enzyme mix was added (0.2 μg/ml IDH1 R132H) followed by a brief centrifugation and shake at 100 RPM. The reaction was incubated for 50 minutes at room temperature, then 25 μl of detection mix (30 μM resazurin, […]) was added and the mixture further incubated for 5 minutes at room temperature. The conversion of resazurin to resorufin was detected by fluorescent spectroscopy at Ex544 Em590 c/o 590.

Sequence of IDH1 R132H (O75874 whole entry R132H): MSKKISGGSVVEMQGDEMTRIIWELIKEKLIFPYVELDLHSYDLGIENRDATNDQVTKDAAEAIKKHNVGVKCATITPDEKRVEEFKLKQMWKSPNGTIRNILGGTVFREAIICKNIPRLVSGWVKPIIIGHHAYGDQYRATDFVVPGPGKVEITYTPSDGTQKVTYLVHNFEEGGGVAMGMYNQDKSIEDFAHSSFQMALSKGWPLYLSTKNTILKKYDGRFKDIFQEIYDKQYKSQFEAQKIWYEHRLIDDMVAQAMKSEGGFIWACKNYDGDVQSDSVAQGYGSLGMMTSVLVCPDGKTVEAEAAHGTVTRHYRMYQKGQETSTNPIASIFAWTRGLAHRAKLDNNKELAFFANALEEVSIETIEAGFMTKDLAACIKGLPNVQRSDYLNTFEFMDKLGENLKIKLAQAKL

First: CC(C)c1cc(-c2ccccc2)c(C#N)c(N2CCN(C(=O)Cc3ccccc3)[C@@H](C)C2)n1 [Compound 133, (S)-6-isopropyl-2-(3-methyl-4-(2-phenylacetyl)piperazin-1-yl)-4-phenylnicotinonitrile]
Second: CC(C)c1cc(-c2ccccc2)c(C#N)c(N2CCN(C(=O)Cc3ccccc3)C(C)C2)n1 (centres unmarked) [Compound 121, 6-isopropyl-2-(3-methyl-4-(2-phenylacetyl)piperazin-1-yl)-4-phenylnicotinonitrile]
The IC50 of the first is lower: 1000 to 5000 nM for the first, 5000 to 15000 nM for the second.

Cc1ccc(-c2cc(C#N)c(N3CCN(C(=O)Cc4cccs4)[C@H](C)C3)nc2C(C)C)cc1 [Compound 181, (R)-6-isopropyl-2-(3-methyl-4-(2-(thiophen-2-yl)acetyl)piperazin-1-yl)-5-p-tolylnicotinonitrile] and COCCC(=O)N1CCN(c2nc(C(C)C)c(-c3ccc(C)cc3)cc2C#N)C[C@H]1C [Compound 198, (R)-6-isopropyl-2-(4-(3-methoxypropanoyl)-3-methylpiperazin-1-yl)-5-p-tolylnicotinonitrile] fall in the same range of IC50: 1000 to 5000 nM for the first, 1000 to 5000 nM for the second.

COCCC(=O)N1CCN(c2nc(C(C)C)c(-c3ccccc3)cc2C#N)C[C@H]1C [Compound 222, (R)-6-isopropyl-2-(4-(3-methoxypropanoyl)-3-methylpiperazin-1-yl)-5-phenylnicotinonitrile] and COCCC(=O)N1CCN(c2nc(C(C)C)c(-c3cccc(F)c3)cc2C#N)C[C@H]1C [Compound 231, (R)-5-(3-fluorophenyl)-6-isopropyl-2-(4-(3-methoxypropanoyl)-3-methylpiperazin-1-yl)nicotinonitrile] cannot be ordered by IC50: at most 1000 nM for the first, 1000 to 5000 nM for the second.

COc1ccccc1-c1cc(C(C)C)nc(N2CCN(C(=O)c3ccoc3)CC2)c1C#N [Compound 113, 2-(4-(furan-3-carbonyl)piperazin-1-yl)-6-isopropyl-4-(2-methoxyphenyl)nicotinonitrile] and CC(C)c1cc(-c2cccc(F)c2)c(C#N)c(N2CCN(C(=O)c3c[nH]c4ccccc34)C(C)C2)n1 (centres unmarked) [Compound 129, 2-(4-(1H-indole-3-carbonyl)-3-methylpiperazin-1-yl)-4-(3-fluorophenyl)-6-isopropylnicotinonitrile] fall in the same range of IC50: 5000 to 15000 nM for the first, 5000 to 15000 nM for the second.

COCCC(=O)N1CCN(c2nc(C(C)C)c(-c3ccc(OC)cc3)cc2C#N)C[C@H]1C [Compound 214, (R)-6-isopropyl-5-(4-methoxyphenyl)-2-(4-(3-methoxypropanoyl)-3-methylpiperazin-1-yl)nicotinonitrile] and COCCC(=O)N1CCN(c2nc(C(C)C)c(Cc3ccccc3)cc2C#N)C[C@H]1C [Compound 239, (R)-5-benzyl-6-isopropyl-2-(4-(3-methoxypropanoyl)-3-methylpiperazin-1-yl)nicotinonitrile] fall in the same range of IC50: 1000 to 5000 nM for the first, 1000 to 5000 nM for the second.

CC(C)c1cc(-c2ccccc2)nc(N2CCN(C(=O)c3ccco3)C(C)C2)c1C#N (centres unmarked) [Compound 108, 2-(4-(furan-2-carbonyl)-3-methylpiperazin-1-yl)-4-isopropyl-6-phenylnicotinonitrile] and CC1CN(c2nc(-c3ccccc3)c(-c3ccccc3)cc2C#N)CCN1C(=O)c1ccoc1 (centres unmarked) [Compound 118, 2-(4-(furan-3-carbonyl)-3-methylpiperazin-1-yl)-5,6-diphenylnicotinonitrile] fall in the same range of IC50: 5000 to 15000 nM for the first, 5000 to 15000 nM for the second.

COCCC(=O)N1CCN(c2nc(C3CC3)c(-c3cccc(OC)c3)cc2C#N)C[C@H]1C [Compound 236, (R)-6-cyclopropyl-5-(3-methoxyphenyl)-2-(4-(3-methoxypropanoyl)-3-methylpiperazin-1-yl)nicotinonitrile] and COCCC(=O)N1CCN(c2nc(C3CC3)c(-c3ccc4[nH]ccc4c3)cc2C#N)C[C@H]1C [Compound 253, (R)-6-cyclopropyl-5-(1H-indol-5-yl)-2-(4-(3-methoxypropanoyl)-3-methylpiperazin-1-yl)nicotinonitrile] cannot be ordered by IC50: at most 1000 nM for the first, at most 1000 nM for the second.

Cc1occc1C(=O)N1CCN(c2nc(C(C)C)c(-c3ccc(C(C)C)cc3)cc2C#N)C[C@H]1C [Compound 202, (R)-6-isopropyl-5-(4-isopropylphenyl)-2-(3-methyl-4-(2-methylfuran-3-carbonyl)piperazin-1-yl)nicotinonitrile] and COCCC(=O)N1CCN(c2nc(C(C)C)c(OCc3ccccc3)cc2C#N)C[C@H]1C [Compound 254, (R)-5-(benzyloxy)-6-isopropyl-2-(4-(3-methoxypropanoyl)-3-methylpiperazin-1-yl)nicotinonitrile] fall in the same range of IC50: 1000 to 5000 nM for the first, 1000 to 5000 nM for the second.

Same assay, conditions: enzyme assay of Example 12; read-out: IDH1R132H IC50

Compared with CN(C)c1nccc(-c2cc(C#N)c(N3CCN(C(=O)C4CC4)[C@H](C4CC4)C3)nc2C2CC2)n1 [Compound 506, (R)-2-(4-(cyclopropanecarbonyl)-3-cyclopropylpiperazin-1-yl)-6-cyclopropyl-5-(2-(dimethylamino)pyrimidin-4-yl)nicotinonitrile], N#Cc1cc(-c2ccnc(NCCO)n2)c(C2CC2)nc1N1CCN(C(=O)C2CC2)[C@H](C2CC2)C1 [Compound 512, (R)-2-(4-(cyclopropanecarbonyl)-3-cyclopropylpiperazin-1-yl)-6-cyclopropyl-5-(2-(2-hydroxyethylamino)pyrimidin-4-yl)nicotinonitrile] is lower in IC50: 500 to 1000 nM for the first, under 500 nM for the second.

First: CC(C)(C)OC(=O)Nc1cnnc(-c2cc(C#N)c(N3CCN(C(=O)CCO)[C@H](C4CC4)C3)nc2C2CC2)c1 [Compound 723, (R)-tert-butyl(6-(5-cyano-2-cyclopropyl-6-(3-cyclopropyl-4-(3-hydroxypropanoyl)piperazin-1-yl)pyridin-3-yl)pyridazin-4-yl)carbamate]
Second: CCC(=O)Nc1cccc(-c2cc(C#N)c(N3CCN(C(=O)C4CC4)[C@H](C4CC4)C3)nc2C2CC2)c1 [Compound 450, (R)—N-(3-(5-cyano-6-(4-(cyclopropanecarbonyl)-3-cyclopropylpiperazin-1-yl)-2-cyclopropylpyridin-3-yl)phenyl)propionamide]
The IC50 of the first is lower: under 500 nM for the first, 500 to 1000 nM for the second. The first is the more potent here.

COCCC(=O)N1CCN(c2nc(C3CC3)c(Nc3ccc(F)cc3)cc2C#N)C[C@H]1C [Compound 355, (R)-6-cyclopropyl-5-((4-fluorophenyl)amino)-2-(4-(3-methoxypropanoyl)-3-methylpiperazin-1-yl)nicotinonitrile] and COCCC(=O)N1CCN(c2nc(C3CC3)c(-c3cccs3)cc2C#N)C[C@H]1C [Compound 273, (R)-6-cyclopropyl-2-(4-(3-methoxypropanoyl)-3-methylpiperazin-1-yl)-5-(thiophen-2-yl)nicotinonitrile] fall in the same range of IC50: 500 to 1000 nM for the first, 500 to 1000 nM for the second.

First: C=Cc1nc(-c2cc(C#N)c(N3CCN(C(=O)CCOC)[C@H](C)C3)nc2C2CC2)ncc1F [Compound 601, (R)-6-cyclopropyl-5-(5-fluoro-4-vinylpyrimidin-2-yl)-2-(4-(3-methoxypropanoyl)-3-methylpiperazin-1-yl)nicotinonitrile]
Second: COCCC(=O)N1CCN(c2nc(C3CC3)c(-c3ccc(C#N)nc3)cc2C#N)C[C@H]1C [Compound 584, (R)-2-cyclopropyl-6-(4-(3-methoxypropanoyl)-3-methylpiperazin-1-yl)-3,3′-bipyridine-5,6′-dicarbonitrile]
The IC50 of the first is lower: under 500 nM for the first, 500 to 1000 nM for the second. The first is the more potent here.

COCCC(=O)N1CCN(c2nc(C3CC3)c(-c3cccc(N(C)C(=O)C(F)F)c3)cc2C#N)C[C@H]1C [Compound 455] and COCCC(=O)N1CCN(c2nc(C3CC3)c(-c3ccc4[nH]cc(C(=O)C(F)(F)F)c4c3)cc2C#N)C[C@H]1C [Compound 317, (R)-6-cyclopropyl-2-(4-(3-methoxypropanoyl)-3-methylpiperazin-1-yl)-5-(3-(2,2,2-trifluoroacetyl)-1H-indol-5-yl)nicotinonitrile] fall in the same range of IC50: 500 to 1000 nM for the first, 500 to 1000 nM for the second.

Cc1c(C#N)c(N2CCN(C(=O)CC(F)(F)F)[C@H](C3CC3)C2)nc(C2CC2)c1-c1ccc(F)cc1 [Compound 300, (R)-6-cyclopropyl-2-(3-cyclopropyl-4-(3,3,3-trifluoropropanoyl)piperazin-1-yl)-5-(4-fluorophenyl)-4-methylnicotinonitrile] and CNC(=O)c1cccc(-c2c(C3CC3)nc(N3CCN(C(=O)CCOC)[C@H](C)C3)c(C#N)c2C)c1 [Compound 327, (R)-3-{5-cyano-2-cyclopropyl-6-[4-(3-methoxy-propionyl)-3-methyl-piperazin-1-yl]-4-methyl-pyridin-3-yl}-N-methyl-benzamide] fall in the same range of IC50: 500 to 1000 nM for the first, 500 to 1000 nM for the second.

COCCC(=O)N1CCN(c2nc(C3CC3)c(-c3ccc(F)cc3)cc2-c2nnco2)C[C@H]1C [Compound 392, (R)-1-(4-(6-cyclopropyl-5-(4-fluorophenyl)-3-(1,3,4-oxadiazol-2-yl)pyridin-2-yl)-2-methylpiperazin-1-yl)-3-methoxypropan-1-one] and COCCC(=O)N1CCN(c2nc(C3CC3)c(-c3cccc4c3CN(C)C4=O)cc2C#N)C[C@H]1C [Compound 460, (R)-6-Cyclopropyl-2-(4-(3-methoxypropanoyl)-3-methylpiperazin-1-yl)-5-(2-methyl-1-oxoisoindolin-4-yl)nicotinonitrile] cannot be ordered by IC50: under 500 nM for the first, under 500 nM for the second.

First: N#Cc1cc(-c2cccc3cnccc23)c(C2CC2)nc1N1CCN(C(=O)C2CC2)CC(F)C1 (centres unmarked) [Compound 477, 2-(4-(cyclopropanecarbonyl)-6-fluoro-1,4-diazepan-1-yl)-6-cyclopropyl-5-(isoquinolin-5-yl)nicotinonitrile]
Second: C=Cc1ccnc(Nc2cc(C#N)c(N3CCN(C(=O)/C=C/CCO)[C@H](C4CC4)C3)nc2C2CC2)c1 [Compound 798, (R,E)-6-cyclopropyl-2-(3-cyclopropyl-4-(5-hydroxypent-2-enoyl)piperazin-1-yl)-5-((4-vinylpyridin-2-yl)amino)nicotinonitrile]
The IC50 of the first is higher: 500 to 1000 nM for the first, under 500 nM for the second. The second is the more potent here.
